Experimental data published in US20060089378A1 (priority 2004, published 2006).
Read-outs that look alike come from different tables or passages of the source.

Experiments:
Cannabinoid CB1 Receptor = molecular target: T1, Cannabinoid CB1 Receptor (Homo sapiens, UniProt P21554); experiment: Binding assay for CB1 agonists or inverse agonists (radioligand competition, membranes of transfected SK-N-MC cells); conditions: for inhibition at 0.2 µM: read-out: Cannabinoid CB1 Receptor Binding percent inhibition
T1 construct: expressed in transfected cells
T1 sequence (P21554 whole entry): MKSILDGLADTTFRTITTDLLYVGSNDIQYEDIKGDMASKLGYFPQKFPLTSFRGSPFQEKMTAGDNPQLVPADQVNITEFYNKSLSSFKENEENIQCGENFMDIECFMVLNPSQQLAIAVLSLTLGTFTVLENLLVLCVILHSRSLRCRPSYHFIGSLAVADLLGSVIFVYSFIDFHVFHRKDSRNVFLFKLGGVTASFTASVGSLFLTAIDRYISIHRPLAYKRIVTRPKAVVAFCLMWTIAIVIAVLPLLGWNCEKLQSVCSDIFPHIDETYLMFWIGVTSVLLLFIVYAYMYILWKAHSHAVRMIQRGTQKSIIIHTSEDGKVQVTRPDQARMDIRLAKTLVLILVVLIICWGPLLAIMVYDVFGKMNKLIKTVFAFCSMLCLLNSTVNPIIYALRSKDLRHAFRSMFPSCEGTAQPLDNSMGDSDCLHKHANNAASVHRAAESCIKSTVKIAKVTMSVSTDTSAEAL

Cannabinoid CB2 Receptor = molecular target: T2, Cannabinoid CB2 Receptor (Homo sapiens, UniProt P34972); experiment: Binding assay for CB2 agonists or inverse agonists (radioligand competition, membranes of transfected SK-N-MC cells); conditions: for inhibition at 0.2 µM: read-out: Cannabinoid CB2 Receptor Binding percent inhibition
T2 construct: expressed in transfected cells
T2 sequence (P34972 whole entry): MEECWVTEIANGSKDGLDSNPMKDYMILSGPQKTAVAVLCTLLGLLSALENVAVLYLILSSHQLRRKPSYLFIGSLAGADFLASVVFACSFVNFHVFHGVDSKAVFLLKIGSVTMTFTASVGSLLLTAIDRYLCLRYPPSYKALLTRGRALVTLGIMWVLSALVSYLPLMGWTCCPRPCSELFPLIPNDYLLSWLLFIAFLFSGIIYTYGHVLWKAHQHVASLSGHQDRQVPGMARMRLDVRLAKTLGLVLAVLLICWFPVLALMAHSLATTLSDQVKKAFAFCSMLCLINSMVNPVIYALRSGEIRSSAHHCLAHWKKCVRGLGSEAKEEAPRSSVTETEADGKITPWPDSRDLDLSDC

CB1 receptor (human) = CB1 receptor (human) (Homo sapiens, UniProt P21554); experiment: cell-based; conditions: for CB1 Receptor Functional Activity (change in functional activity, CRE β-gal): one compound concentration, β-galactosidase activity relative to vehicle treated cells
Chain of CB1 receptor (human) (P21554 whole entry): as the sequence (P21554 whole entry) above

[1] = human CB1, SK-N-MC cell membranes, calculated by linear regression from percent inhibition at various concentrations, read-out: Cannabinoid CB1 Receptor Binding IC50
[2] = human CB2, SK-N-MC cell membranes, calculated by linear regression from percent inhibition at various concentrations, read-out: Cannabinoid CB2 Receptor Binding IC50

Structure (SMILES) | IC50 (Cannabinoid CB1 Receptor) | IC50 (Cannabinoid CB1 Receptor; [1]) | CB1 Receptor Functional Activity (change in functional activity, CRE β-gal) (CB1 receptor (human)) | IC50 (Cannabinoid CB2 Receptor) | other results
COC(=O)N1C/C(=C\c2ccc(OC)cc2)c2c(c(C(=O)NN3CC4CCCC4C3)nn2-c2ccc(Cl)cc2Cl)C1 (stereo not drawn) [Cpd 100, (7E)-1-(2,4-dichloro-phenyl)-3-(hexahydro-cyclopenta[c]pyrrol-2-ylcarbamoyl)-7-(4-methoxy-benzylidene)-1,4,6,7-tetrahydro-pyrazolo[4,3-c]pyridine-5-carboxylic acid methyl ester] | 0.007 µM | – | – | – | inhibition at 0.2 µM (Cannabinoid CB2 Receptor): 63%; EC50 (CB1 receptor (human)): 0.001 µM
C[C@@H](NC(=O)c1nn(Cc2ccccc2)c2c1CN(C(=O)OC(C)(C)C)CC2)C1CCCCC1 [Cpd 103, 1-benzyl-3-[(1R)-1-cyclohexyl-ethylcarbamoyl]-1,4,6,7-tetrahydro-pyrazolo[4,3-c]pyridine-5-carboxylic acid tert-butyl ester] | – | 0.3 µM | 8% | – | IC50 (Cannabinoid CB2 Receptor; [2]): 0.9 µM
CC(C)(C)OC(=O)N1CCc2c(c(C(=O)N[C@H]3C4(C)CCC(C4)C3(C)C)nn2Cc2ccccc2)C1 (stereo partly drawn) [Cpd 104, 1-benzyl-3-[(2S)-1,3,3-trimethyl-bicyclo[2.2.1]hept-2-ylcarbamoyl]-1,4,6,7-tetrahydro-pyrazolo[4,3-c]pyridine-5-carboxylic acid tert-butyl ester] | – | 0.5 µM | −11% | 0.02 µM | –
CC12CCC(C1)C(C)(C)[C@H]2NC(=O)c1nn(Cc2ccccc2)c2c1CNCC2 (stereo partly drawn) [Cpd 105, 1-benzyl-4,5,6,7-tetrahydro-1H-pyrazolo[4,3-c]pyridine-3-carboxylic acid [(2S)-1,3,3-trimethyl-bicyclo[2.2.1]hept-2-yl]-amide] | 0.2 µM | – | −18% | 0.5 µM | –
CC(=O)N1CCc2c(c(C(=O)NC3C4(C)CCC(C4)C3(C)C)nn2Cc2ccccc2)C1 (stereo not drawn) [Cpd 109, 5-acetyl-1-benzyl-4,5,6,7-tetrahydro-1H-pyrazolo[4,3-c]pyridine-3-carboxylic acid (1,3,3-trimethyl-bicyclo[2.2.1]hept-2-yl)-amide] | 1.3 µM | – | – | 0.08 µM | EC50 (CB1 receptor (human)): 8.1 µM
CC(C)(C)OC(=O)N1CCc2c(c(C(=O)NC3C4(C)CCC(C4)C3(C)C)nn2-c2ccccc2)C1 (stereo not drawn) [Cpd 111, 1-phenyl-3-(1,3,3-trimethyl-bicyclo[2.2.1]hept-2-ylcarbamoyl)-1,4,6,7-tetrahydro-pyrazolo[4,3-c]pyridine-5-carboxylic acid tert-butyl ester] | – | – | 24% | 0.1 µM | inhibition at 0.2 µM (Cannabinoid CB1 Receptor): 27%
CC(=O)N1CCc2c(c(C(=O)NC3C4(C)CCC(C4)C3(C)C)nn2-c2ccccc2)C1 (stereo not drawn) [Cpd 112, 5-acetyl-1-phenyl-4,5,6,7-tetrahydro-1H-pyrazolo[4,3-c]pyridine-3-carboxylic acid (1,3,3-trimethyl-bicyclo[2.2.1]hept-2-yl)-amide] | – | – | 45% | 0.1 µM | inhibition at 0.2 µM (Cannabinoid CB1 Receptor; test concentration of 0.2 μM, compounds without an IC50 binding value): 44%
CCOC(=O)N1CCc2c(c(C(=O)NC3C4(C)CCC(C4)C3(C)C)nn2-c2ccccc2)C1 (stereo not drawn) [Cpd 113, 1-phenyl-3-(1,3,3-trimethyl-bicyclo[2.2.1]hept-2-ylcarbamoyl)-1,4,6,7-tetrahydro-pyrazolo[4,3-c]pyridine-5-carboxylic acid ethyl ester] | 2.3 µM | – | 57% | 0.08 µM | –
CCNC(=O)N1CCc2c(c(C(=O)NC3C4(C)CCC(C4)C3(C)C)nn2-c2ccccc2)C1 (stereo not drawn) [Cpd 114, 1-phenyl-1,4,6,7-tetrahydro-pyrazolo[4,3-c]pyridine-3,5-dicarboxylic acid 5-ethylamide 3-[(1,3,3-trimethyl-bicyclo[2.2.1]hept-2-yl)-amide]] | – | – | 51% | – | inhibition at 0.2 µM (Cannabinoid CB1 Receptor): 51%; inhibition at 0.2 µM (Cannabinoid CB2 Receptor): 34%
COC(=O)N1CCc2c(c(C(=O)NC3C4(C)CCC(C4)C3(C)C)nn2-c2ccccc2)C1 (stereo not drawn) [Cpd 115, 1-phenyl-3-(1,3,3-trimethyl-bicyclo[2.2.1]hept-2-ylcarbamoyl)-1,4,6,7-tetrahydro-pyrazolo[4,3-c]pyridine-5-carboxylic acid methyl ester] | 2.7 µM | – | 81% | 0.09 µM | –
CCCCn1nc(C(=O)NC2C3(C)CCC(C3)C2(C)C)c2c1CCN(C(=O)OC)C2 (stereo not drawn) [Cpd 116, 1-butyl-3-(1,3,3-trimethyl-bicyclo[2.2.1]hept-2-ylcarbamoyl)-1,4,6,7-tetrahydro-pyrazolo[4,3-c]pyridine-5-carboxylic acid methyl ester] | 0.1 µM | – | – | – | inhibition at 0.2 µM (Cannabinoid CB2 Receptor): 53%; EC50 (CB1 receptor (human)): 2.9 µM
CC12CCC(C1)C(C)(C)C2NC(=O)c1nn(C2CCCCC2)c2c1CNCC2 (stereo not drawn) [Cpd 118, 1-cyclohexyl-4,5,6,7-tetrahydro-1H-pyrazolo[4,3-c]pyridine-3-carboxylic acid (1,3,3-trimethyl-bicyclo[2.2.1]hept-2-yl)-amide] | 0.8 µM | – | 4% | – | IC50 (Cannabinoid CB2 Receptor; [2]): 1.8 µM
CCC(=O)N1CCc2c(c(C(=O)NC3C4(C)CCC(C4)C3(C)C)nn2C2CCCCC2)C1 (stereo not drawn) [Cpd 122, 1-cyclohexyl-5-propionyl-4,5,6,7-tetrahydro-1H-pyrazolo[4,3-c]pyridine-3-carboxylic acid (1,3,3-trimethyl-bicyclo[2.2.1]hept-2-yl)-amide] | 0.6 µM | – | – | 0.01 µM | EC50 (CB1 receptor (human)): 0.9 µM
Cc1ccc(S(=O)(=O)N2CCc3c(c(C(=O)NC4C5(C)CCC(C5)C4(C)C)nn3Cc3ccccc3)C2)cc1 (stereo not drawn) [Cpd 125, 1-benzyl-5-(toluene-4-sulfonyl)-4,5,6,7-tetrahydro-1H-pyrazolo[4,3-c]pyridine-3-carboxylic acid (1,3,3-trimethyl-bicyclo[2.2.1]hept-2-yl)-amide] | – | 0.2 µM | 27% | 0.03 µM | –
CN(C)S(=O)(=O)N1CCc2c(c(C(=O)NC3C4(C)CCC(C4)C3(C)C)nn2C2CCCCC2)C1 (stereo not drawn) [Cpd 127, 1-cyclohexyl-5-dimethylsulfamoyl-4,5,6,7-tetrahydro-1H-pyrazolo[4,3-c]pyridine-3-carboxylic acid (1,3,3-trimethyl-bicyclo[2.2.1]hept-2-yl)-amide] | 2.6 µM | – | 28% | 0.9 µM | –
COC(=O)CN1CCc2c(c(C(=O)NC3C4(C)CCC(C4)C3(C)C)nn2C2CCCCC2)C1 (stereo not drawn) [Cpd 128, [1-cyclohexyl-3-(1,3,3-trimethyl-bicyclo[2.2.1]hept-2-ylcarbamoyl)-1,4,6,7-tetrahydro-pyrazolo[4,3-c]pyridin-5-yl]-acetic acid methyl ester] | – | 0.7 µM | −7% | – | IC50 (Cannabinoid CB2 Receptor; [2]): 0.4 µM
COC(=O)N1CCc2c(c(C(=O)NC3C4CC5CC(C4)CC3C5)nn2C2CCCCC2)C1 (stereo not drawn) [Cpd 131, 3-(adamantan-2-ylcarbamoyl)-1-cyclohexyl-1,4,6,7-tetrahydro-pyrazolo[4,3-c]pyridine-5-carboxylic acid methyl ester] | – | 2.7 µM | −49% | – | IC50 (Cannabinoid CB2 Receptor; [2]): 0.2 µM
CN(C)C(=O)N1CCc2c(c(C(=O)NC3C4CC5CC(C4)CC3C5)nn2C2CCCCC2)C1 (stereo not drawn) [Cpd 132, 1-cyclohexyl-1,4,6,7-tetrahydro-pyrazolo[4,3-c]pyridine-3,5-dicarboxylic acid 3-adamantan-2-ylamide 5-dimethylamide] | – | 5.5 µM | −42% | – | IC50 (Cannabinoid CB2 Receptor; [2]): 0.2 µM
